Laboratory results taken from ChEMBL document CHEMBL3227967, “Quantitative structure-activity relationships in 1-aryl-2-(alkylamino)ethanol antimalarials” (J Med Chem, 1979).

System: Plasmodium berghei
Test: Antimalarial activity against Plasmodium berghei
Type: functional

Row | Compound | log(1/C)
1 | CCCCCCNCC(O)c1cc2ccc(C(F)(F)F)cc2c2cc(C(F)(F)F)ccc12 (stereo not drawn) | 3.78
2 | CCCCN(CCCC)CC(O)c1cc(Cl)nc2ccccc12 (stereo not drawn) | 2.14
3 | CCCCN(CCCC)CC(O)c1cc2cc(Cl)ccc2c2cc(C(F)(F)F)ccc12 (stereo not drawn) | 3.69
4 | CCCCN(CCCC)CC(O)c1cc2cc(Br)ccc2c2cc(SC)ccc12 (stereo not drawn) | 3.04
5 | CCCCN(CCCC)CC(O)c1cc(C(=O)c2ccc(Cl)cc2)cc2c(Cl)cc(Cl)cc12 (stereo not drawn) | 2.66
6 | CCCCN(CCCC)CC(O)c1cc2ccc(Br)cc2c2cc(C)sc12 (stereo not drawn) | 2.44
7 | CCCCCCC[N+]([O-])(CCCCCCC)CC(O)c1cc2ccccc2c2cc(Br)ccc12 (stereo not drawn) | 3.43
8 | CCCCN(CCCC)CC(O)c1cc(-c2ccc(OC)cc2)nc(-c2ccc(OC)cc2)c1 (stereo not drawn) | 2.17
9 | CCCCN(CCCC)CC(O)c1cc(Cl)cc2c1-c1ccc(Cl)cc1C2 (stereo not drawn) | 3.97
10 | OC(CC1CCCN1)c1cc(-c2ccccc2)nc2ccccc12 (stereo not drawn) | 2.26
11 | CCCCN(CCCC)CC(O)c1cc(Oc2cccc(C(C)(F)F)c2)nc2c(Cl)cc(Cl)cc12 (stereo not drawn) | 2.76
12 | OC(CC1CCCCN1)c1cc2cc(Br)ccc2c2cc(Br)ccc12 (stereo not drawn) | 4.13
13 | CCCCCCCN(CCCCCCC)CC(O)c1c2ccccc2c(Cl)c2ccccc12 (stereo not drawn) | 3.7
14 | CCN(CC)CC(O)c1cc(-c2ccc(OC)c(OC)c2)nc2cc(Cl)ccc12 (stereo not drawn) | 2.81
15 | COc1ccc(-c2cc(C(O)CC3CCCCN3)c3cccc(C)c3n2)cc1 (stereo not drawn) | 3.18
16 | CCCCCCCCN(CCCCCCCC)CC(O)c1ccc(Br)c2ccccc12 (stereo not drawn) | 2.24
17 | OC(CC1CCCCN1)c1cc2cccc(C(F)(F)F)c2c2cc(C(F)(F)F)ccc12 (stereo not drawn) | 3.54
18 | Cc1ccc(-c2cc(C(O)CC3CCCCN3)c3cccc(C(F)(F)F)c3n2)cc1 (stereo not drawn) | 3.94
19 | CCCCN(CCCC)CC(O)c1cc2cc(Cl)cc(Cl)c2c2cc(Cl)ccc12 (stereo not drawn) | 4.21
20 | CCCCN(CCCC)CC(O)c1cc2ccc(Cl)c(Cl)c2c2cc(C(F)(F)F)ccc12 (stereo not drawn) | 3.98
21 | CCCCN(CCCC)CC(O)c1cc(-c2ccc(Cl)cc2)nc(-c2ccc(Br)cc2)c1 (stereo not drawn) | 3.36
22 | COc1ccc(-c2cc(C(O)CC3CCCCN3)c3cc(C)ccc3n2)cc1 (stereo not drawn) | 3
23 | CCN(CC)C(CO)CC(O)c1cc(-c2cccs2)nc2ccc(Cl)cc12 (stereo not drawn) | 2.12
24 | Cc1cccc2c(C(O)CC3CCCCN3)cc(-c3ccc(F)cc3)nc12 (stereo not drawn) | 3.72
25 | CCCCN(CCCC)CC(O)c1cc2c(Cl)cc(Cl)cc2c2cc(Cl)ccc12 (stereo not drawn) | 3.72

Row | Compound | log(1/C)
26 | CCCCN(CCCC)CC(O)c1c2ccccc2c(Br)c2ccccc12 (stereo not drawn) | 2.88
27 | CCCC(CCC)NCC(O)c1cc(-c2ccc(C(F)(F)F)cc2)nc(C(F)(F)F)c1 (stereo not drawn) | 4.47
28 | CCCCN(CCCC)CC(O)c1cc2cc(S(C)(=O)=O)ccc2c2cc(Cl)c(Cl)cc12 (stereo not drawn) | 3.74
29 | CCCCCCCN(CCCCCCC)CC(O)c1cc2c(Cl)cc(Cl)cc2c2sccc12 (stereo not drawn) | 2.89
30 | CCCC[N+]([O-])(CCCC)CC(O)c1cc(-c2ccc(Cl)cc2)nc(-c2ccc(Cl)cc2)c1 (stereo not drawn) | 3.57
31 | CCCCN(CCCC)CC(O)c1cc(-c2ccc(C(F)(F)F)cc2)nc(C(F)(F)F)c1 (stereo not drawn) | 4.13
32 | CCN(CC)CC(O)c1cc(-c2ccc(Cl)cc2)nc(-c2ccc(Cl)cc2)c1 (stereo not drawn) | 3.19
33 | CCCCN(CCCC)CC(O)c1cc(C23CC4CC(CC(C4)C2)C3)nc2c(C(F)(F)F)cccc12 (stereo not drawn) | 3.59
34 | CCCCN(CCCC)CC(O)c1cc2ccccc2c2c(Cl)cccc12 (stereo not drawn) | 2.77
35 | CCCCCCCCNCC(O)c1cc(-c2ccc(C(F)(F)F)cc2)nc(-c2ccc(C(F)(F)F)cc2)c1 (stereo not drawn) | 3.76
36 | CCCCN(CCCC)CC(O)c1c2cccc(Cl)c2cc2c(Cl)cccc12 (stereo not drawn) | 2.76
37 | CCCCNCC(O)c1cc(-c2cccc(C(F)(F)F)c2)nc(C(F)(F)F)c1 (stereo not drawn) | 3.69
38 | CCNCC(O)c1cc(-c2ccc(C(F)(F)F)cc2)nc(-c2ccc(C(F)(F)F)cc2)c1 (stereo not drawn) | 3.72
39 | CCCCCCCN(CCCCCCC)CC(O)c1c2ccccc2cc2ccccc12 (stereo not drawn) | 3.07
40 | CCCCN(CCCC)CC(O)c1ccnc2c1cnc1cc(Cl)ccc12 (stereo not drawn) | 2.11
41 | FC(F)(F)c1cc(C2CCCCN2)c2ccc3ccccc3c2n1.OC(CC1CCCCN1)c1cc(C(F)(F)F)nc2c1ccc1ccccc12 (stereo not drawn) | 3.44
42 | OC(CC1CCCCN1)c1cc(C(F)(F)F)nc2c1cc(Cl)c1ccccc12 (stereo not drawn) | 3.43
43 | OC(CC1CCCCN1)c1ccnc2c(Cl)cccc12 (stereo not drawn) | 2.01
44 | CCCCCCCN(CCCCCCC)CC(O)c1cc(-c2ccc(Cl)c(Cl)c2)cc2cc(Cl)c(OC)cc12 (stereo not drawn) | 2.58
45 | CCCCN(C)CC(O)c1cc(-c2ccc(Cl)cc2)nc(-c2ccc(Cl)cc2)c1 (stereo not drawn) | 3.59
46 | OC(CC1CCCCN1)c1cc2cc(Cl)ccc2c2c(Cl)cc(Cl)cc12 (stereo not drawn) | 4.29
47 | CCCCCCCN(CCCCCCC)CC(O)c1cccc2c1cc(Cl)c1ccccc12 (stereo not drawn) | 2.5
48 | CCCCCCCN(CCCCCCC)CC(O)c1cc(-c2ccc(Cl)cc2)cc2cc(Cl)c(OC)cc12 (stereo not drawn) | 3.31
49 | CCCCN(CCCC)CC(O)c1cc(-c2ccc(Cl)c(Cl)c2)nc2ccc(OC)cc12 (stereo not drawn) | 3.33
50 | CCCN(CCC)CC(O)c1cc2ccc(C(F)(F)F)cc2c2cc(C(F)(F)F)ccc12 (stereo not drawn) | 3.92

Row | Compound | log(1/C)
51 | CCCC(CCC)N(CC(O)c1cc(-c2ccc(C(F)(F)F)cc2)nc(-c2ccc(C(F)(F)F)cc2)c1)C(CCC)CCC (stereo not drawn) | 4.15
52 | CCCCN(CCCC)CC(O)c1c(C)c(-c2ccc(C)cc2C)nc2c1cc(Cl)c1ccccc12 (stereo not drawn) | 3.05
53 | CCCCN(CCCC)CC(O)c1c(OC)c2cc(Br)ccc2c2ccc(Br)cc12 (stereo not drawn) | 3.94
54 | CCCCN(CCCC)CC(O)c1cc2c(Cl)cc(Cl)cc2c2ccsc12 (stereo not drawn) | 3.2
55 | CCCCN(CCCC)CC(O)c1cc2c(Br)cc(Br)cc2c2cc(Br)ccc12 (stereo not drawn) | 4.19
56 | CCCCN(CCCC)CC(O)c1cc(C(C)(C)C)nc2c1cc(C)c1ccccc12 (stereo not drawn) | 2.32
57 | CCCCCCCN(CCCCCCC)CC(O)c1c(OC)c2cc(Cl)ccc2c2ccc(Cl)cc12 (stereo not drawn) | 3.34
58 | OC(CC1CCCCN1)c1cc2ccc(C(F)(F)F)cc2c2cc(Cl)c(Cl)cc12 (stereo not drawn) | 4.02
59 | CCCCN(CCCC)CC(O)c1cc(-c2ccc(Cl)cc2)nc(-c2ccc(Cl)cc2)c1.O=C(O)CCC(=O)O (stereo not drawn) | 3.71
60 | CCCCN(CCCC)CC(O)c1c2ccccc2cc2ccccc12 (stereo not drawn) | 2.35
61 | CCCCCCCN(CCCCCCC)CC(O)c1cccc2c1c(Br)cc1ccccc12 (stereo not drawn) | 2.27
62 | CCN(CC)CC(O)c1cc(-c2ccc(OC)cc2)nc2cc(Cl)c(OC)cc12 (stereo not drawn) | 2.92
63 | CCCN(CCC)CC(O)c1cc2c(Cl)cc(Cl)cc2c2cc(Cl)ccc12 (stereo not drawn) | 4.19
64 | OC(CC1CCCCN1)c1cc2c(Cl)c(Cl)ccc2c2cc(C(F)(F)F)ccc12 (stereo not drawn) | 4.45
65 | CCCCN(CCCC)CC(O)c1cc(-c2ccc(Cl)c(Cl)c2)nc2cc(OC)ccc12 (stereo not drawn) | 3.21
66 | OC(CCNC1CCCCC1)c1cc2ccc(C(F)(F)F)cc2c2cc(C(F)(F)F)ccc12 (stereo not drawn) | 4.53
67 | COc1ccc2nc(C(F)(F)F)cc(C(O)CC3CCCCN3)c2c1 (stereo not drawn) | 2.97
68 | CCCCN(CCCC)CC(O)c1cc(/C=C/c2ccc(C(F)(F)F)cc2)nc(C(=O)c2ccc(C(F)(F)F)cc2)c1 (stereo not drawn) | 3.91
69 | OC(CC1CCCCN1)c1cc(-c2ccc(Cl)cc2)nc2c1ccc1ccccc12 (stereo not drawn) | 3.2
70 | C=C[C@H]1CN2CC[C@H]1C[C@H]2[C@H](O)c1ccnc2ccc(OC)cc12.O=C(O)CCC(=O)O | 2.28
71 | CCCN(CCC)CC(O)c1cc(C(F)(F)F)nc2c(C(F)(F)F)cccc12 (stereo not drawn) | 2.88
72 | CCCCN(CCCC)CC(O)c1cc2ccccc2c2cc(F)ccc12 (stereo not drawn) | 2.58
73 | CCCN(CCC)CC(O)c1cc2cc(C(F)(F)F)cc(C(F)(F)F)c2c2cc(Cl)c(Cl)cc12 (stereo not drawn) | 5.18
74 | CCN(CC)CC(O)c1cc(-c2ccc(Cl)c(Cl)c2)nc2cc(OC)ccc12 (stereo not drawn) | 3.32
75 | CCCCN(CCCC)CC(O)c1cc2ccc(I)cc2c2cc(C(F)(F)F)ccc12 (stereo not drawn) | 3.72

Row | Compound | log(1/C)
76 | CN1CCN(CC(O)c2cc(-c3ccccc3)nc3c(Cl)cc(Cl)cc23)CC1 (stereo not drawn) | 2.48
77 | CCCCNCC(O)c1cc(-c2ccc(Cl)cc2)nc2cc(Cl)c(OC)cc12 (stereo not drawn) | 3.88
78 | CCCCCCN(CCCCCC)CC(O)c1cccc2ccc3cccc(Br)c3c12 (stereo not drawn) | 2.39
79 | CCCCN(CCCC)CC(O)c1c(Cl)cc2ccc(-c3ccc(Cl)cc3)nc2c1Cl (stereo not drawn) | 3.02
80 | CCCCCCCN(CCCCCCC)CC(O)c1cc2ccc(Cl)cc2c2cc(C(F)(F)F)ccc12 (stereo not drawn) | 3.61
81 | CCCCCCCN(CCCCCCC)CC(O)c1cccc2c1cc(Cl)c1ccc(Cl)cc12 (stereo not drawn) | 2.96
82 | OC(CN1CCN(c2ccccc2)CC1)c1cc(-c2ccccc2)nc2c(Cl)cc(Cl)cc12 (stereo not drawn) | 2.66
83 | CCCCN(CCCC)CC(O)c1cc(-c2ccc(OC)cc2)nc2cc(Cl)c(OC)cc12 (stereo not drawn) | 3.32
84 | CCCCCCCN(CCCCCCC)CC(O)c1c(Br)c2ccccc2c2ccccc12 (stereo not drawn) | 3.33
85 | CCCCNCC(O)c1cc(-c2ccc(Br)cc2)nc(-c2ccc(C(F)(F)F)cc2)c1 (stereo not drawn) | 3.94
86 | CCCCNCC(O)c1cc(-c2ccc(C(F)(F)F)cc2)nc(C(F)(F)F)c1 (stereo not drawn) | 4.08
87 | OC(CC1CCCCN1)c1cc2ccc(C(F)(F)F)cc2c2ccccc12 (stereo not drawn) | 3.43
88 | CCCN(CCC)CCC(O)c1cc2ccc(C(F)(F)F)cc2c2cc(C(F)(F)F)ccc12 (stereo not drawn) | 4.23
89 | CCCCN(CCCC)CCC(O)c1cc(-c2ccc(Cl)c(Cl)c2)nc2c(Cl)cc(Cl)cc12 (stereo not drawn) | 4.67
90 | CCCCCCN(CCCCCC)CC(O)c1cc(-c2ccccc2)nc2c(Cl)cc(Cl)cc12 (stereo not drawn) | 3.35
91 | OC(CC1CCCCN1)c1cc2ccccc2c2c(C(F)(F)F)cccc12 (stereo not drawn) | 3.73
92 | CCCCNCCC(O)c1cc2ccc(C(F)(F)F)cc2c2cc(C(F)(F)F)ccc12 (stereo not drawn) | 4.73
93 | CCCCN(CCCC)CC(O)c1cc2cc(Cl)cc(Cl)c2c2cc(SC)ccc12 (stereo not drawn) | 3.88
94 | CCCCN(CCCC)CC(O)c1ccc(Cl)c2ncccc12 (stereo not drawn) | 2.16
95 | CN1CCCC1CC(O)c1cc2ccc(Cl)cc2c2cc(Cl)ccc12 (stereo not drawn) | 3.46
96 | CCCCN(CCCC)CC(O)c1cc2ccc(Cl)cc2c2c(Cl)cc(Cl)cc12 (stereo not drawn) | 4.21
97 | CC(C)(C)NCC(O)c1cc2ccccc2c2ccccc12 (stereo not drawn) | 2.09
98 | CCCCN(CCCC)CC(O)c1cc2c(Cl)cc(Cl)cc2c2cc(Cl)sc12 (stereo not drawn) | 3.53
